*1 amine or outer side, *2 acyl side, *3 side chain or, on linkers, in order; H or OH if unused. Where a SMILES comes first, the peptide text is derived from it. Bridges are numbered along the chain shown (N, C = ends). [ ]: non-standard residue; d: D form. Hcy(O2-CH2CH2CO) = O=C([C@H](CCS(=O)(=O)CCC(=O)[*:3])N[*:1])[*:2]; αMeL = CC(C)C[C@](C)(N)C(=O)O; Chg = N[C@H](C(=O)O)C1CCCCC1; NcPrGly = O=C(O)CNC1CC1

Here are results for 6 compounds from US20170081368A1, “PEPTIDES AS OXYTOCIN AGONISTS” (Hoffmann-La Roche Inc., priority 2014, published 2017).

What all share (assay type): cell-based
Assay [1] addresses T1, human Oxytocin (OTR) receptor (Homo sapiens, UniProt P30559).
T1 construct: expressed in transfected cells
T1 sequence (P30559 1-389): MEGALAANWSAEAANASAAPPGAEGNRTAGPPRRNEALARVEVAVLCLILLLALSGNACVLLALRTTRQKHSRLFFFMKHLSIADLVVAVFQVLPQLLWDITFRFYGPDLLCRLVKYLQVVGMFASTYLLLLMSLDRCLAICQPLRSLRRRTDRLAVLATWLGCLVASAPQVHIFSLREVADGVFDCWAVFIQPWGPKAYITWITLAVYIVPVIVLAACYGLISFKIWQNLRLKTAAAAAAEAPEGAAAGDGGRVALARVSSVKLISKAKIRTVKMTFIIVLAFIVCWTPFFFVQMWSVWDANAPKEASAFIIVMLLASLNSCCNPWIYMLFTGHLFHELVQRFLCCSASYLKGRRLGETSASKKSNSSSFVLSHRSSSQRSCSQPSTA
Put plainly: Calcium flux assay (FLIPR) in CHO cells expressing human OTR. The following applies: for Emax: CHO, maximum response normalized to endogenous full agonist = 100%, read-out: hOT efficacy; for EC50: agonist mode, CHO cells, calcium flux FLIPR, read-out: hOT EC50. An excerpt: (§1) Chines Hamster Ovary (CHO) cells were transfected with expression plasmids encoding either the human Vla, the human Oxytocin (OTR) or the humanV2 receptor, the later in combination with the chimeric Gqs5 G protein to redirect the signal to Calcium flux. Stable cells were cloned by limiting dilution to yield monoclonal cell lines expressing either human Vla, human V2+Gqs5 or human OTR receptors and selected based on functional responses detected on a fluorometric imaging plate reader (FLIPR) detecting Calcium flux in the cell after receptor activation. The stable cell lines were grown in F-12 K Nutrient Mixture (Kaighns Modification), containing 10% foetal bovine serum (FBS), 1% penicillin-streptomycin, 1% L-glutamate, 200 ug/ml Geneticin at 37° C. in a 10% CO2 incubator at 95% humidity.
(§2) Calcium Flux Assays Using Fluorescent Imaging (Fluorometric Imaging Plate Reader, FLIPR)
(§3) On the afternoon before the assay, cells were plated at a density of 50,000 cells/well into black 96 well plates with clear bottoms to allow cell inspection and fluorescence measurements from the bottom of each well. The density of cells was sufficient to yield a confluent monolayer the next day. Hanks balanced salt solution, without phenol red, containing 20 mM HEPES (pH 7.3) and 2.5 mM probenecid (assay buffer) was prepared fresh for each experiment. Compound dilutions were made using a Beckman Biomek 2000 laboratory automation workstation, in assay buffer containing 1% DMSO. The dye-loading buffer consisted of a final concentration of 2 μM Fluo-4-AM (dissolved in DMSO and pluronic acid) in assay buffer. The existing culture media was removed from the wells and 100 μl of the dye-loading buffer was added to each well and incubated for approximately 60 min at 37° C. in a 5% CO2 incubator at 95% humidity. Once dye-loaded, the cells were washed thoroughly on an Embla cell washer with the assay buffer to remove any unincorporated dye. Exactly 100 μl assay buffer was left in each well.
(§4) Each 96 well plate containing dye-loaded cells was placed into the FLIPR machine and the laser intensity set to a suitable level to detect low basal fluorescence. To test compounds as agonists, 25 μl diluted compound was added to the plate 10 seconds into the fluorescent measurements and fluorescent response was recorded for 5 minutes. The fluorescence data was normalized to the endogenous full agonist dose-response set at 100% for the maximum response and 0% for the minimum. Each agonist concentration-response curve was constructed using a four parameter logistic equation with Microsoft Excel XLFit as follows: Y=Minimum+((Maximum−Minimum)/(1+10^(LogEC50−X)nH)), where y is the % normalized fluorescence, minimum is the minimum y, maximum is the maximum y, log EC50 is the log10 concentration which produces 50% of the maximum induced fluorescence, x is the log10 of the concentration of the agonist compound and H is the slope of the curve (the Hill Coefficient). The maximum value gives the efficacy of the agonist test compound in percentage. The concentration of agonist that produced a half-maximal response is represented by the EC50 value, the logarithm of which yielded the pEC50 value.
A general note: Calcium flux is commonly read through the fluorescence of an indicator in the cells.

For a further assay, the target named is T2, human V2 receptor (Homo sapiens, UniProt P30518).
T2 construct: expressed in transfected cells
Put plainly: Calcium flux assay (FLIPR) in CHO cells expressing human V2+Gqs5. Particulars: for Emax: CHO, maximum response normalized to endogenous full agonist = 100%, read-out: hV2 efficacy; for EC50: agonist mode, CHO cells with chimeric Gqs5, calcium flux FLIPR, read-out: hV2 EC50.
Text: as §1, §2, §3, §4

The next assay deals with T3, human V1a receptor (Homo sapiens, UniProt P37288).
T3 construct: expressed in transfected cells
Put plainly: Calcium flux assay (FLIPR) in CHO cells expressing human V1a. Particulars: for EC50: agonist mode, CHO cells, calcium flux FLIPR, read-out: hV1a EC50.
Text: as §1, §2, §3, §4

T2 sequence (P30518 whole entry): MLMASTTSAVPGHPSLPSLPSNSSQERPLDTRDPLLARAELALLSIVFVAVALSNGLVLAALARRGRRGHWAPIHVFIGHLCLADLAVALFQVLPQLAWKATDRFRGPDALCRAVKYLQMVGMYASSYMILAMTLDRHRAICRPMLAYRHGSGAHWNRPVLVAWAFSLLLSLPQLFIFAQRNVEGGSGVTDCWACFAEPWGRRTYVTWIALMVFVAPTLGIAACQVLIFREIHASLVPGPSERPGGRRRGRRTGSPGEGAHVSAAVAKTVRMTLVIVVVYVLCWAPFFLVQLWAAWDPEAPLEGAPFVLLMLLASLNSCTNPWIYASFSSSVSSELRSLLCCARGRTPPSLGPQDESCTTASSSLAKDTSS
T3 sequence (P37288 whole entry): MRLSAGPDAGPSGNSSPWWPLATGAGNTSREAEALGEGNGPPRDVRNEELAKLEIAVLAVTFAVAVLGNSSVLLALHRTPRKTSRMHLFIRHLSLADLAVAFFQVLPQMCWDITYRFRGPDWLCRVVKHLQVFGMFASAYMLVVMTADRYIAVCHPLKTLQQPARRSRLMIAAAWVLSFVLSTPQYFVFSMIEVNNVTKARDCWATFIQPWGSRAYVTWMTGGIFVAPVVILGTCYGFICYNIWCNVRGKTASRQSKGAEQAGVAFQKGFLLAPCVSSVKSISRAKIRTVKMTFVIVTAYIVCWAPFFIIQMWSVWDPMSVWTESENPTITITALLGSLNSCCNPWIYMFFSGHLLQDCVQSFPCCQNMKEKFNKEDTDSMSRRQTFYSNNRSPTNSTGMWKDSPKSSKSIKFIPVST

As to `CC[C@H](C)[C@@H]1NC(=O)[C@H](Cc2ccc(O)cc2)NC(=O)CCS(=O)(=O)CC[C@@H](C(=O)N2CCC[C@H]2C(=O)N[C@@H](CC(C)C)C(=O)NCC(N)=O)NC(=O)[C@H](CC(N)=O)NC(=O)[C@H](CCC(N)=O)NC1=O` [Example 1] (HELM PEPTIDE1{Y.I.Q.N.[O=C([C@H](CCS(=O)(=O)CCC(=O)[*:3])N[*:1])[*:2]].P.L.G.[am]}$PEPTIDE1,PEPTIDE1,1:R1-5:R3$$$V2.0), the Emax in assay [1] was found to be 120%; on human V2 receptor it was 101%. Besides, the EC50 is 0.0008 µM in assay [1], 2.98 µM on human V2 receptor and 1.63 µM on human V1a receptor.
On the same counts, the results for `CC[C@H](C)[C@@H]1NC(=O)[C@H](Cc2ccc(O)cc2)NC(=O)CCS(=O)(=O)CC[C@@H](C(=O)N(C)CC(=O)N[C@@H](CC(C)C)C(=O)NCC(N)=O)NC(=O)[C@H](CC(N)=O)NC(=O)[C@H](CCC(N)=O)NC1=O` [Example 2] (HELM PEPTIDE1{Y.I.Q.N.[O=C([C@H](CCS(=O)(=O)CCC(=O)[*:3])N[*:1])[*:2]].[Sar].L.G.[am]}$PEPTIDE1,PEPTIDE1,1:R1-5:R3$$$V2.0) are 107%, 86%, 0.0008 µM, 3.98 µM and more than 27 µM.
On the same counts, the results for `CC[C@H](C)[C@@H]1NC(=O)[C@H](Cc2ccc(O)cc2)NC(=O)CCS(=O)(=O)CC[C@@H](C(=O)N(CC(=O)N[C@@H](CC(C)C)C(=O)NCC(N)=O)C2CC2)NC(=O)[C@H](CC(N)=O)NC(=O)[C@H](CCC(N)=O)NC1=O` [Example 27] (HELM PEPTIDE1{Y.I.Q.N.[O=C([C@H](CCS(=O)(=O)CCC(=O)[*:3])N[*:1])[*:2]].[O=C(CN(C1CC1)[*:1])[*:2]].L.G.[am]}$PEPTIDE1,PEPTIDE1,1:R1-5:R3$$$V2.0) are 125%, 110%, 0.0005 µM, 3.73 µM and more than 27 µM.
On the same counts, the results for `CC[C@H](C)[C@@H]1NC(=O)[C@H](Cc2ccc(O)cc2)NC(=O)CCS(=O)(=O)CC[C@@H](C(=O)N(CC(=O)N[C@@](C)(CC(C)C)C(=O)NCC(N)=O)C2CC2)NC(=O)[C@H](CC(N)=O)NC(=O)[C@H](CCC(N)=O)NC1=O` [Example 28] (YIQN[Hcy(O2-CH2CH2CO)][NcPrGly][αMeL]G-NH2; lactam N-5) are 105%, 129%, 0.0007 µM, 9.42 µM and more than 27 µM.
With `CC[C@H](C)[C@H](NC(=O)CN(C(=O)[C@@H]1CCS(=O)(=O)CCC(=O)N[C@@H](Cc2ccc(O)cc2)C(=O)N[C@@H]([C@@H](C)CC)C(=O)N[C@@H](CCC(N)=O)C(=O)N[C@@H](CC(N)=O)C(=O)N1)C1CC1)C(=O)NCC(N)=O` [Example 31] (HELM PEPTIDE1{Y.I.Q.N.[O=C([C@H](CCS(=O)(=O)CCC(=O)[*:3])N[*:1])[*:2]].[O=C(CN(C1CC1)[*:1])[*:2]].I.G.[am]}$PEPTIDE1,PEPTIDE1,1:R1-5:R3$$$V2.0), in assay [1], the Emax was determined as 115% and the EC50 was 0.0004 µM. Moreover, at human V2 receptor, the Emax was 150% and the EC50 is 2.94 µM.
`CC[C@H](C)[C@@H]1NC(=O)[C@H](Cc2ccc(O)cc2)NC(=O)CCS(=O)(=O)CC[C@@H](C(=O)N(CC(=O)N[C@H](C(=O)NCC(N)=O)C2CCCCC2)C2CC2)NC(=O)[C@H](CC(N)=O)NC(=O)[C@H](CCC(N)=O)NC1=O` [Example 32] (YIQN[Hcy(O2-CH2CH2CO)][NcPrGly][Chg]G-NH2; lactam N-5): the Emax turned out to be 120% in assay [1] and 155% on human V2 receptor. Besides, the EC50 in assay [1] is 0.00026 µM; at human V2 receptor, 2.36 µM; on human V1a receptor it was 2.23 µM. In addition, at human V1a receptor (maximum response normalized to endogenous full agonist = 100%), the hV1a efficacy is given as 38%.

In general, EC50 refers to the concentration needed to bring the measured effect to its halfway point.
